Like-named read-outs stand apart in the source and are kept apart here.
Columns and labels:
[1] = system: HepG2 cells; assay: cells; assay type: cell-based, human; conditions: for IC50: Homo sapiens; for HepG2 TI (IC50 WI-38 / IC50 HepG2): therapeutic index, ratio of WI-38 IC50 to HepG2 IC50
Procedure: (§1) Cells were obtained from the ATCC Company (VACSERA), Cairo, Egypt. MTT assay were performed according to the literature method. More details are in the Supporting Information.
(§2) Recently, OSe compounds gained much attention as possible drug candidates due to their various pharmacological properties. Our group has reported several OSe candidates with potential anticancer, antimicrobial, and antioxidant activities. Therefore, the anticancer attributes of the newly prepared OSe compounds were estimated using the MTT assay against MCF-7 and HepG2 and compared with their respective cytotoxicity in WI-38 primary cells. The anthracycline drug doxorubicin was used as the standard. The minimal inhibition concentration required to kill 50% of the cells (IC50) was calculated from dose-response curves presented in Table 1. Moreover, the therapeutic index (TI) was also calculated (according to Equation (1)), which is considered a measure of the selectivity and safety of the synthesized compounds. (1) TI=IC50 for the normal WI38 cells/IC50 for the cancer cells […]
(§3) 1.1. The biological assays
(§4) 1.1.1. The anticancer activity
The breast adenocarcinoma (MCF-7), Hepatocellular carcinoma (HEPG-2), and nor-mal fibroblast (WI-38) cells were obtained from ATCC via Holding company for biological products and vaccines (VACSERA), Cairo, Egypt. The reagents RPMI-1640 medium, MTT, DMSO, and fetal bovine serum was obtained from Sigma Aldrich. Dulbecco’s modified Eagle’s medium was used as the culture medium for the cells, and the cytotoxicity was evaluated using the reported MTT assay. Doxorubicin was used as the positive reference, and the IC50 values were obtained from the corresponding dose-response curve.
This colorimetric assay is based on converting the yellow tetrazolium bromide (MTT) to a purple formazan derivative by mitochondrial succinate dehydrogenase in viable cells.
(§5) Cell lines were cultured in RPMI-1640 medium with 10% fetal bovine serum. Antibiotics added were 100 units/ml penicillin and 100µg/ml streptomycin at 37 C in a 5% Co2 incu-bator. The cell lines were seeded in a 96-well plate at a density of 1.0x10^4 cells/well. at 37 C for 48 h under 5% Co2. After incubation, the cells were treated with different concentra-tions of compounds and incubated for 24 h. After 24 h of drug treatment, 20 µl of MTT solution at 5mg/ml was added and incubated for 4 h. Finally, dimethyl sulfoxide (DMSO) in the volume of 100 µl is added to each well to dissolve the purple formazan formed. The colorimetric assay is measured and recorded at an absorbance of 570 nm using a plate reader (EXL 800, USA). The percentage of the relative cell viability was calculated as (A570 of treated samples/A570 of the untreated sample) X 100. […]
(§6) Inhibition%= (Ablank-Asample)/(Ablank)*100. (1)

[2] = system: Staphylococcus aureus; assay: Agar diffusion assay, S. aureus; assay type: cell-based; design: S. aureus A% (activity index): concentration or dose not given beside the values; conditions: for zone of inhibition at 20 µM: Staphylococcus aureus, read-out: S. aureus IZD (mm); for S. aureus A% (activity index): zone of test compound / zone of standard (ampicillin) x 100
Procedure: (§7) The antimicrobial activities of the OSe compounds were evaluated against C. albicans yeast, as well as E. coli and S. bacteria, employing the agar well diffusion assay. Furthermore, the MICs (in µM) were determined by the microdilution method according to the reported protocol. More details are in the Supporting Information.
(§8) Compounds were evaluated for their antimicrobial activity against the Gram-negative bacteria Escherichia coli (E. coli) and the Gram-positive bacteria Staphylococcus aureus (S. aureus), as well as the Candida albicans (C. albicans) fungal strain, using the agar diffusion assay. Ampicillin and clotrimazole were used as standards. Indeed, the antimicrobial properties of the OSe compounds were also obtained from the activity index percentage (A%) according to Equation (2). (2) A%=Zone of inhibition by test compound diametre/Zone of inhibition by standard diametre×100 . […]
(§9) 1.1.1. The antimicrobial activity
The antimicrobial activities of the OSe compounds were evaluated against C. albicans yeast as well as E. coli gram-negative and S. aureus gram-positive bacteria employing the agar well diffusion assay. Briefly, a concentration of 1 mM was prepared for each compound by dissolving in DMSO. Paper discs of standard size […] were steri-lized in an autoclave and soaked in 20 µL of the test compounds, and placed in the Petri dishes, which in turn contain a nutrient media (agar 20 g, peptone 5 g, and beef extract 3 g) seeded with the dedicated strain. Incubation lasted for 24 h at 36
(§10) Furthermore, the MICs (in µM) were determined by the microdilution method according to the reported protocol. […]
as §6

[3] = system: WI-38 cells; assay: cells; assay type: cell-based, human; conditions: Homo sapiens
Procedure: as §1
as §2, with “Our group has reported several OSe candidates with potential anticancer, antimicrobial, and antioxidant activities.” left out, “The minimal inhibition concentration required to kill 50% of the cells (IC50) was calculated from dose-response curves presented in Table 1.” left out
as §3, §4
(§11) The breast adenocarcinoma (MCF-7), Hepatocellular carcinoma (HEPG-2), and nor-mal fibroblast (WI-38) cells were obtained from ATCC via Holding company for biological products and vaccines (VACSERA), Cairo, Egypt.
(§12) DMSO, and fetal bovine serum was obtained from Sigma Aldrich. Dulbecco’s modified Eagle’s medium was used as the culture medium for the cells, and the cytotoxicity was evaluated using the reported MTT assay. Doxorubicin was used as the positive reference, and the IC50 values were obtained from the corresponding dose-response curve.
(§13) This colorimetric assay is based on converting the yellow tetrazolium bromide (MTT) to a purple formazan derivative by mitochondrial succinate dehydrogenase in viable cells. […]
as §5, with “added” for “Cell lines were cultured in RPMI-1640 medium with 10% fetal bovine serum. Antibiotics added”, “plate” for “plate reader (EXL 800, USA). The percentage of the relative cell viability was calculated as (A570 of treated samples/A570 of the untreated sample) X 100.”
(§14) The percentage of the relative cell viability was calculated as (A570 of treated samples/A570 of the untreated sample) X 100. […]

[4] = system: MCF-7 cells; assay: cells; assay type: cell-based, human; conditions: for IC50: Homo sapiens; for MCF7 TI (IC50 WI-38 / IC50 MCF-7): therapeutic index, ratio of WI-38 IC50 to MCF-7 IC50
Procedure: as §1
as §2, with “Our group has reported several OSe candidates with potential anticancer, antimicrobial, and antioxidant activities.” left out, “The minimal inhibition concentration required to kill 50% of the cells (IC50) was calculated from dose-response curves presented in Table 1.” left out
as §3, §4, §11, §12, §13
as §5, with “added” for “Cell lines were cultured in RPMI-1640 medium with 10% fetal bovine serum. Antibiotics added”, “plate” for “plate reader (EXL 800, USA). The percentage of the relative cell viability was calculated as (A570 of treated samples/A570 of the untreated sample) X 100.”
as §14

[5] = system: Escherichia coli; assay: Agar diffusion assay, E. coli; assay type: cell-based; design: E. coli A% (activity index): concentration or dose not given beside the values; conditions: for zone of inhibition at 20 µM: Escherichia coli, read-out: E. coli IZD (mm); for E. coli A% (activity index): zone of test compound / zone of standard (ampicillin) x 100
[6] = system: Candida albicans; assay: microbe, parasite or virus in culture; assay type: cell-based; conditions: for zone of inhibition at 20 µM: Candida albicans, inhibition zone diameter, six-mm disks soaked with 20 μM of compound, read-out: C. albicans IZD (mm); for C. albicans A% (activity index): zone of test compound / zone of standard (clotrimazole) x 100
Procedure: as §7, §8, §9
The antimicrobial activities of the OSe compounds were evaluated against C. albicans yeast as well as E. coli gram-negative and S. aureus gram-positive bacteria employing the agar well diffusion assay. […]
compound by dissolving in DMSO. […]
Petri dishes, which in turn contain a nutrient media (agar 20 g, peptone 5 g, and beef extract 3 g) seeded with the dedicated strain. Incubation lasted for 24 h at 36
as §10, §6

[7] = MTT, 24 h incubation, HepG2 cells, read-out: HepG2 IC50
[8] = inhibition zone diameter, six-mm disks soaked with 20 μM of compound
[9] = MTT, 24 h incubation, normal WI-38 cells, read-out: WI38 IC50
[10] = MCF7, MTT, 24 h incubation, MCF-7 cells, read-out: MCF7 IC50

SMILES | melting point | IC50 [1, 7] | zone of inhibition at 20 µM [2, 8] | S. aureus A% (activity index) [2] | IC50 [3, 9] | IC50 [4, 10] | zone of inhibition at 20 µM [5, 8] | E. coli A% (activity index) [5] | HepG2 TI (IC50 WI-38 / IC50 HepG2) [1] | MCF7 TI (IC50 WI-38 / IC50 MCF-7) [4] | IC50 ([1]; HepG2, 24 h, read-out: HepG2 IC50 (µM)) | zone of inhibition at 20 µM [2] | IC50 ([3]; WI-38, 24 h, read-out: WI38 IC50 (µM)) | IC50 ([4]; MCF7, 24 h, read-out: MCF7 IC50 (µM)) | zone of inhibition at 20 µM [5] | zone of inhibition at 20 µM [6] | C. albicans A% (activity index) [6]
O=C(C[Se]c1ccc(N=Cc2ccccc2O)cc1)Nc1ccccc1 | 150.3 °C | – | – | – | – | – | – | – | – | – | – | – | – | – | – | – | –
O=C(C[Se]c1ccc(N2C(=O)C=CC2=O)cc1)Nc1ccccc1 [Compound 13, 2-((4-(2,5-dioxo-2,5-dihydro-1H-pyrrol-1-yl)phenyl)selanyl)-N-phenylacetamide] | 169 to 170 °C | > 100 µM | 6 mm | 29% | > 100 µM | > 100 µM | 5 mm | 22% | – | – | – | – | – | – | – | – | –
COc1cccc2c1C(=O)c1c(O)c3c(c(O)c1C2=O)C[C@@](O)(C(=O)CO)C[C@@H]3O[C@H]1C[C@H](N)[C@H](O)[C@H](C)O1 [Doxorubicin, doxorubicin, reference compound] | – | 4.5 ± 0.2 µM | – | – | – | – | – | – | 1.5 | 1.6 | – | – | – | – | – | – | –
N#CC(C#N)=NNc1ccc([Se]CC(=O)Nc2ccccc2)cc1 [Compound 7] | 177 to 179 °C | – | – | 29% | – | – | – | 13% | – | – | > 100 µM | 6 mm | > 100 µM | > 100 µM | 3 mm | – | –
CC(=O)Nc1ccc([Se]CC(=O)Nc2ccccc2)cc1 [Compound 18, 2-((4-acetamidophenyl)selanyl)-N-phenylacetamide] | 161 to 162 °C | 47.6 ± 2.8 µM | 8 mm | – | 85.1 ± 4.7 µM | 43.5 ± 2.6 µM | 6 mm | 26% | 1.8 | 2 | – | – | – | – | – | 11 mm | 46%
CC1(C)S[C@@H]2[C@H](NC(=O)[C@H](N)c3ccccc3)C(=O)N2[C@H]1C(=O)O [Ampicillin, ampicillin, reference compound] | – | – | 21 mm | 100% | – | – | 23 mm | 100% | – | – | – | – | – | – | – | – | –
CC1=NN(c2ccccc2)C(=O)C1=NNc1ccc([Se]CC(=O)Nc2ccccc2)cc1 [Compound 8, 2-((4-(2-(3-methyl-5-oxo-1-phenyl-1H-pyrazol-4(5H)-ylidene)hydrazinyl)phenyl)selanyl)-N-phenylacetamide] | 197 to 199 °C | > 100 µM | 4 mm | 19% | > 100 µM | > 100 µM | – | – | – | – | – | – | – | – | – | – | –
O=CNc1ccc([Se]CC(=O)Nc2ccccc2)cc1 [Compound 17, 2-((4-formamidophenyl)selanyl)-N-phenylacetamide] | 143 to 144 °C | > 100 µM | – | – | > 100 µM | > 100 µM | – | – | – | – | – | – | – | – | – | – | –
O=C(C[Se]c1ccc(N2C(=O)c3ccccc3C2=O)cc1)Nc1ccccc1 [Compound 12, 2-((4-(1,3-dioxoisoindolin-2-yl)phenyl)selanyl)-N-phenylacetamide] | 261 to 262 °C | > 100 µM | 8 mm | 38% | > 100 µM | > 100 µM | 6 mm | 26% | – | – | – | – | – | – | – | 7 mm | 29%
O=C(CCl)Nc1ccc([Se]CC(=O)Nc2ccccc2)cc1 [Compound 19] | 184.8 °C | > 100 µM | – | – | > 100 µM | > 100 µM | – | – | – | – | – | – | – | – | – | – | –
CN(C)C=Nc1ccc([Se]CC(=O)Nc2ccccc2)cc1 [Compound 20, 2-((4-(((dimethylamino)methylene)amino)phenyl)selanyl)-N-phenylacetamide] | 118 to 120 °C | 40.3 ± 2.5 µM | 9 mm | 43% | > 100 µM | 36.8 ± 2.4 µM | 8 mm | 35% | 2.5 | 2.7 | – | – | – | – | – | 11 mm | 46%
O=C(O)C=CC(=O)Nc1ccc([Se]CC(=O)Nc2ccccc2)cc1 [Compound 10, 4-oxo-4-((4-((2-oxo-2-(phenylamino)ethyl)selanyl)phenyl)amino)but-2-enoic acid] | – | > 100 µM | 11 mm | 52% | 46 ± 2.9 µM | 34.8 ± 2.5 µM | 9 mm | 39% | – | 1.3 | – | – | – | – | – | 8 mm | 33%
